{
  "source": "ChEMBL document CHEMBL4311943",
  "about": "“3-[(1S,2S,3R)-2,3-Difluoro-1-hydroxy-7-methylsulfonylindan-4-yl]oxy-5-fluorobenzonitrile (PT2977), a Hypoxia-Inducible Factor 2α (HIF-2α) Inhibitor for the Treatment of Clear Cell Renal Cell Carcinoma” (J Med Chem, 2019)",
  "key": {"[1]": {"target": "Neurotensin receptor type 1 (Homo sapiens) (UniProt P30989)", "test": "Activity at human NTR1 receptor at 10 uM"}, "[2]": {"target": "Hydroxycarboxylic acid receptor 2 (Homo sapiens) (UniProt Q8TDS4)", "sequence (Q8TDS4 whole entry)": "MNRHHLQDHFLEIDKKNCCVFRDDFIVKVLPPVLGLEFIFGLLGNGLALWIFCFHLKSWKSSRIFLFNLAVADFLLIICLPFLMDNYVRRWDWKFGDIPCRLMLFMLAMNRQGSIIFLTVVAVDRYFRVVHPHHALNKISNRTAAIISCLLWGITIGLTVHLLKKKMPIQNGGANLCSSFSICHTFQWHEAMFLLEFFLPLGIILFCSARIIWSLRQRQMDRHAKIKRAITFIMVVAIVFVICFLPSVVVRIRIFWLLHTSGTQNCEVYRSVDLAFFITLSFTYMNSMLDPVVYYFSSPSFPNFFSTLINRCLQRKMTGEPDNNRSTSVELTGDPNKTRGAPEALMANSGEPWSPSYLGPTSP", "test": "Activity at human GPR109A receptor at 10 uM"}, "[3]": {"test": "Toxicity in patient with advanced solid tumor assessed as anemia at 20 to 240 mg, po administered once daily", "assay_type": "organism-based", "details": "human, in vivo"}, "[4]": {"test": "Cmin in patient with advanced solid tumor at 120 mg, po administered once daily measured on day 15 measured after 24 hrs", "assay_type": "ADME, organism-based", "details": "human, in vivo, read-out: Cmin"}, "[5]": {"target": "Cytochrome P450 2C9 (Homo sapiens, UniProt P11712)", "sequence (P11712 whole entry)": "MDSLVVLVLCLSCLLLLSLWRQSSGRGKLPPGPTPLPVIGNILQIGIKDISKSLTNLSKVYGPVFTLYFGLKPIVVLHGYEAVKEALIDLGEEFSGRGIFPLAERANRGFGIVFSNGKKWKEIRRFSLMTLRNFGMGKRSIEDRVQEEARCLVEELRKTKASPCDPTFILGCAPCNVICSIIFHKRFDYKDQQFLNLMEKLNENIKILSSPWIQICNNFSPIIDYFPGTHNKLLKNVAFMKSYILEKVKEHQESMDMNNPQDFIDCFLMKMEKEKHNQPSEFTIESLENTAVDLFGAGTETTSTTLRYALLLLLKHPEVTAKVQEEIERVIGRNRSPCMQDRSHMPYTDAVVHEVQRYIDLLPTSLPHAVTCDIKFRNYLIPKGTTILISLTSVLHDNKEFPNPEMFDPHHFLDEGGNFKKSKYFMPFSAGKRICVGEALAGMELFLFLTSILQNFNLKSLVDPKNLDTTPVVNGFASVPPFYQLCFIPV", "test": "Inhibition of CYP2C9 in human liver microsomes up to 50 uM using diclofenac as substrate measured after 10 mins in presence of NADPH by LC-MS/MS analysis", "assay_type": "ADME"}, "[6]": {"test": "Half life in monkey at 1 mg/kg, iv by UPLC-MS analysis", "assay_type": "ADME, organism-based, Macaca mulatta", "details": "rhesus monkey, in vivo"}, "[7]": {"test": "Dose normalized AUClast in Sprague-Dawley rat at 10 mg/kg, po administered via gavage by UPLC-MS analysis", "assay_type": "ADME, organism-based", "details": "in vivo"}, "[8]": {"test": "Drug level in plasma of SCID Beige mouse xenografted with human 786-O cells at 0.3 mg/kg, po administered twice daily via gavage for 3 days measured 12 hrs post-last dose", "assay_type": "ADME, organism-based"}, "[9]": {"test": "Drug level in plasma of SCID Beige mouse xenografted with human 786-O cells at 1 mg/kg, po administered twice daily via gavage for 3 days measured 12 hrs post-last dose", "assay_type": "ADME, organism-based"}, "[10]": {"test_system": "786-0", "test": "Antitumor activity against human 786-O cells xenografted in SCID Beige mouse assessed as tumor regression at 0.3 to 3 mg/kg, po administered twice daily via gavage for 3 days measured 12 hrs post-last", "assay_type": "functional, organism-based"}, "[11]": {"test": "Cmax in patient with advanced solid tumor at 80 mg, po administered once daily measured on day 15", "assay_type": "ADME, organism-based", "set-up": "dose 80 mg, route oral", "details": "human, in vivo"}, "[12]": {"test": "AUClast in patient with advanced solid tumor at 160 mg, po administered once daily measured on day 15", "assay_type": "ADME, organism-based", "set-up": "dose 160 mg, time 0 - last, route oral", "details": "human, in vivo"}, "[13]": {"test": "Plasma concentration in patient with advanced solid tumor at 80 mg, po administered once daily measured on day 15 after 24 hrs", "assay_type": "ADME, organism-based", "details": "human"}, "[14]": {"test": "Plasma concentration in patient with advanced solid tumor at 240 mg, po administered once daily measured on day 15 after 24 hrs", "assay_type": "ADME, organism-based", "details": "human"}, "[15]": {"target": "Adenosine receptor A1 (Homo sapiens) (UniProt P30542)", "test": "Activity at human adenosine A1 receptor at 10 uM"}, "[16]": {"target": "Alpha-2A adrenergic receptor (Homo sapiens) (UniProt P08913)", "sequence (P08913 whole entry)": "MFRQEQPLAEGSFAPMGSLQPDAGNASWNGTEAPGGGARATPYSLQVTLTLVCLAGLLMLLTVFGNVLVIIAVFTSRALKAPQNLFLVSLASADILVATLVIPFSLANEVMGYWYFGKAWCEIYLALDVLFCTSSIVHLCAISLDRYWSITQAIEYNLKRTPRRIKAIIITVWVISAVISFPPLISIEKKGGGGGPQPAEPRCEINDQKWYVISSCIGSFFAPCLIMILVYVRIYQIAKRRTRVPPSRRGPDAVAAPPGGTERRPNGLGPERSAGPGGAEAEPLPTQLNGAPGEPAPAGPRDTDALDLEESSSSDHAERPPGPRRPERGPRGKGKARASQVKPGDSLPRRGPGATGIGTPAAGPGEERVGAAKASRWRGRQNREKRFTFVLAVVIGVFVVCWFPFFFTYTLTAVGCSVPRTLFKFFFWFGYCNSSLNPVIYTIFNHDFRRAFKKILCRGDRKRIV", "test": "Activity at human alpha2A receptor at 10 uM"}, "[17]": {"target": "CDK3/Cyclin E (Homo sapiens) (UniProt P24864+Q00526)", "test": "Activity at human CDK3/cyclinE at 10 uM", "assay_type": "protein-complex assay"}, "[18]": {"target": "CDK2/Cyclin A2 (Homo sapiens) (UniProt P24941+P20248)", "test": "Activity at human CDK2/cyclinA at 10 uM", "assay_type": "protein-complex assay"}, "[19]": {"target": "Cyclin-dependent kinase 1/cyclin B1 (Homo sapiens) (UniProt P06493+P14635)", "test": "Activity at human CDK1/cyclinB at 10 uM", "assay_type": "protein-complex assay"}, "[20]": {"target": "Calcium/calmodulin-dependent protein kinase type II subunit gamma (Homo sapiens) (UniProt Q13555)", "test": "Activity at human CAMK2G at 10 uM"}, "[21]": {"target": "5'-AMP-activated protein kinase catalytic subunit alpha-1 (Homo sapiens) (UniProt Q13131)", "test": "Activity at human AMPKalpha1 at 10 uM"}, "[22]": {"target": "Potassium/sodium hyperpolarization-activated cyclic nucleotide-gated channel 4 (Homo sapiens) (UniProt Q9Y3Q4)", "sequence (Q9Y3Q4 whole entry)": "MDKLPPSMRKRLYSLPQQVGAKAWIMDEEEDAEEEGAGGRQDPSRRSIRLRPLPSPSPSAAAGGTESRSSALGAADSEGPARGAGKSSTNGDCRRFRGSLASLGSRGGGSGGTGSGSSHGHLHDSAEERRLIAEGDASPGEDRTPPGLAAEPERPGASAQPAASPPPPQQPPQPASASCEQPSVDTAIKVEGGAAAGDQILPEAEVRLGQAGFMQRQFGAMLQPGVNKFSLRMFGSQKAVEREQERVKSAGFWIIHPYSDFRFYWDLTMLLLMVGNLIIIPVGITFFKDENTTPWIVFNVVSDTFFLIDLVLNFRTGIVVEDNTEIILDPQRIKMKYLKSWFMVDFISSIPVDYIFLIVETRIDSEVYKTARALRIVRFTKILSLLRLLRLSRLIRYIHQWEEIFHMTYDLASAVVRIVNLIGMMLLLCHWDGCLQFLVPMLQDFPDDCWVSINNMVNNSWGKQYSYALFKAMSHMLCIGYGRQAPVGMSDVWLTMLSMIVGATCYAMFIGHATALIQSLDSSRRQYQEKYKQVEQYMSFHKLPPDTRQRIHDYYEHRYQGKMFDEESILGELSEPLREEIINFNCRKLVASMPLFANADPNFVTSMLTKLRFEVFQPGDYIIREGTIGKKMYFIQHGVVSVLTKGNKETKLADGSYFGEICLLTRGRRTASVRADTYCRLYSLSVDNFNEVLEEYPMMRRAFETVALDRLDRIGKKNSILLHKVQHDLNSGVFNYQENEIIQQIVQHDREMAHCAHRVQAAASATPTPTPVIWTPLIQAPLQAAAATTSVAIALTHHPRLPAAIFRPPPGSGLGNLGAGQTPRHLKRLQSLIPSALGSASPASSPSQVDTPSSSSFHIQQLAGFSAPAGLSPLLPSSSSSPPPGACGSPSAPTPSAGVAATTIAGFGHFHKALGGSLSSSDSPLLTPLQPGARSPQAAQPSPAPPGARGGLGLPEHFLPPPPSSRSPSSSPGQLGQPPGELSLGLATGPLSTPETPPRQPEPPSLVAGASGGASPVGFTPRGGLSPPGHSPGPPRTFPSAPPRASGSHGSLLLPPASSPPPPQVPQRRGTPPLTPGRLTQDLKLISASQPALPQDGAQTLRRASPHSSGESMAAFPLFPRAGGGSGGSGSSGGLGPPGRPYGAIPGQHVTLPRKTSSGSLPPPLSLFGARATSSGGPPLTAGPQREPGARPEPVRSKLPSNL", "test": "Activity at human HCN4 at 10 uM"}, "[23]": {"target": "Vasoactive intestinal polypeptide receptor 2 (Homo sapiens) (UniProt P41587)", "test": "Activity at human VPAC2 at 10 uM"}, "[24]": {"target": "Parathyroid hormone/parathyroid hormone-related peptide receptor (Homo sapiens) (UniProt Q03431)", "test": "Activity at human PTH1 receptor at 10 uM"}, "[25]": {"target": "Thromboxane A2 receptor (Homo sapiens) (UniProt P21731)", "sequence (P21731 whole entry)": "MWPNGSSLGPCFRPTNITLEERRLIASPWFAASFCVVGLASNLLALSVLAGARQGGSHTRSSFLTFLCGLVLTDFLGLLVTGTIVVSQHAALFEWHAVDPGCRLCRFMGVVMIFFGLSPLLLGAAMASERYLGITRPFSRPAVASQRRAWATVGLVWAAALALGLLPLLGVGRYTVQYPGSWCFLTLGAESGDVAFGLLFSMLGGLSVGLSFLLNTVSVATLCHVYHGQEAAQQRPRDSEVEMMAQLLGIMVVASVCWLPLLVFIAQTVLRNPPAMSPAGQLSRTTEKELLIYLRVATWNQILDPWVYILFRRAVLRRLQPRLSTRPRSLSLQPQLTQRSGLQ", "test": "Activity at human Prostanoid TP receptor at 10 uM"}, "[26]": {"target": "Prostaglandin E2 receptor EP3 subtype (Homo sapiens) (UniProt P43115)", "test": "Activity at human Prostanoid EP3 receptor at 10 uM"}, "[27]": {"target": "Prolactin-releasing peptide receptor (Homo sapiens) (UniProt P49683)", "test": "Activity at human PRP receptor at 10 uM"}, "[28]": {"target": "Oxytocin receptor (Homo sapiens) (UniProt P30559)", "test": "Activity at human oxytocin receptor at 10 uM"}, "[29]": {"target": "Mu-type opioid receptor (Homo sapiens) (UniProt P35372)", "sequence (P35372 whole entry)": "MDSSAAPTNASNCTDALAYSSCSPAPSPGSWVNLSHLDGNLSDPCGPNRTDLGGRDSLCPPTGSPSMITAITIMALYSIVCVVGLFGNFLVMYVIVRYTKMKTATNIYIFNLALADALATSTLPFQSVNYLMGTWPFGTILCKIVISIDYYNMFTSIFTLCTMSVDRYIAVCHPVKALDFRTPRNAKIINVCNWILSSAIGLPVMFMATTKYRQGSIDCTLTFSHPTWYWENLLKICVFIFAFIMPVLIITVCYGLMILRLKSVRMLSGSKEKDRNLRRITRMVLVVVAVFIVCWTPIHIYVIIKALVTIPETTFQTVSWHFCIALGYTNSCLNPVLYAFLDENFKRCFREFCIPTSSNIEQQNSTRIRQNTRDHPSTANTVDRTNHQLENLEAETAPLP", "test": "Activity at human mu opioid receptor at 10 uM"}, "[30]": {"target": "Delta-type opioid receptor (Homo sapiens) (UniProt P41143)", "test": "Activity at human delta opioid receptor at 10 uM"}, "[31]": {"target": "Lysophosphatidic acid receptor 1 (Homo sapiens) (UniProt Q92633)", "test": "Activity at human LPA1 receptor at 10 uM"}, "[32]": {"target": "Galanin receptor type 1 (Homo sapiens) (UniProt P47211)", "test": "Activity at human GAL1 receptor at 10 uM"}, "[33]": {"target": "Corticotropin-releasing factor receptor 1 (Homo sapiens) (UniProt P34998)", "sequence (P34998 whole entry)": "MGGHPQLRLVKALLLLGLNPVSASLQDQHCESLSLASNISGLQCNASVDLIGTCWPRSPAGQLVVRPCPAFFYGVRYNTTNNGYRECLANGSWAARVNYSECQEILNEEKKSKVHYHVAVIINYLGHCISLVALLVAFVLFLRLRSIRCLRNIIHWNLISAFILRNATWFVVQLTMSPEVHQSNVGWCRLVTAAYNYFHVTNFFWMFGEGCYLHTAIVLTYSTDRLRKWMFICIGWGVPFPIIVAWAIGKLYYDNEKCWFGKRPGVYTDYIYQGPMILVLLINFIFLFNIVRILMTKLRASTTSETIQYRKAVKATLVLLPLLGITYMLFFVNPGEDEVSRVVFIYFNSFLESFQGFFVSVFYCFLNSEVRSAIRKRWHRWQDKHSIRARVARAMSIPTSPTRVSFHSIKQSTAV", "test": "Activity at human CRF1 receptor at 10 uM"}, "[34]": {"target": "Gastrin/cholecystokinin type B receptor (Homo sapiens) (UniProt P32239)", "test": "Activity at human CCK2 receptor at 10 uM"}, "[35]": {"target": "Cyclin-dependent kinase 5/CDK5 activator 1 (Homo sapiens) (UniProt Q00535+Q15078)", "sequence (Q00535 whole entry)": "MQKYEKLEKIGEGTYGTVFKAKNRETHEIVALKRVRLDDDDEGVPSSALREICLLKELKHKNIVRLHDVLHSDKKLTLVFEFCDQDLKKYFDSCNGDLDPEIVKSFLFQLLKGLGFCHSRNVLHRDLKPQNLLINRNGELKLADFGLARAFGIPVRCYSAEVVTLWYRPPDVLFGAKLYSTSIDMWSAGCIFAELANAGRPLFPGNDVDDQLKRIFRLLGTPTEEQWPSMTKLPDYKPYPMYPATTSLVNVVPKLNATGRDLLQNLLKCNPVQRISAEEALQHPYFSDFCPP", "sequence (Q15078 99-307 partner limits assumed)": "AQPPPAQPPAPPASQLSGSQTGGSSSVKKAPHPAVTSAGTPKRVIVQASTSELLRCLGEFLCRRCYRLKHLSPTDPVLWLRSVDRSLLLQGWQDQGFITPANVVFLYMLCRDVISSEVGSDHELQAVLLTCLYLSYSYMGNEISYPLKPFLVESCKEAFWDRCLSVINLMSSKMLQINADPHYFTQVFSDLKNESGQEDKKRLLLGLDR", "test": "Activity at human CDK5/p25 at 10 uM", "assay_type": "protein-complex assay"}, "[36]": {"target": "Glycogen synthase kinase-3 beta (Homo sapiens) (UniProt P49841)", "test": "Activity at human GSK3beta at 10 uM"}, "[37]": {"target": "Insulin receptor (Homo sapiens) (UniProt P06213)", "test": "Activity at human IR at 10 uM"}, "[38]": {"target": "Protein kinase C beta type (Homo sapiens) (UniProt P05771)", "sequence (P05771 2-671 limits assumed)": "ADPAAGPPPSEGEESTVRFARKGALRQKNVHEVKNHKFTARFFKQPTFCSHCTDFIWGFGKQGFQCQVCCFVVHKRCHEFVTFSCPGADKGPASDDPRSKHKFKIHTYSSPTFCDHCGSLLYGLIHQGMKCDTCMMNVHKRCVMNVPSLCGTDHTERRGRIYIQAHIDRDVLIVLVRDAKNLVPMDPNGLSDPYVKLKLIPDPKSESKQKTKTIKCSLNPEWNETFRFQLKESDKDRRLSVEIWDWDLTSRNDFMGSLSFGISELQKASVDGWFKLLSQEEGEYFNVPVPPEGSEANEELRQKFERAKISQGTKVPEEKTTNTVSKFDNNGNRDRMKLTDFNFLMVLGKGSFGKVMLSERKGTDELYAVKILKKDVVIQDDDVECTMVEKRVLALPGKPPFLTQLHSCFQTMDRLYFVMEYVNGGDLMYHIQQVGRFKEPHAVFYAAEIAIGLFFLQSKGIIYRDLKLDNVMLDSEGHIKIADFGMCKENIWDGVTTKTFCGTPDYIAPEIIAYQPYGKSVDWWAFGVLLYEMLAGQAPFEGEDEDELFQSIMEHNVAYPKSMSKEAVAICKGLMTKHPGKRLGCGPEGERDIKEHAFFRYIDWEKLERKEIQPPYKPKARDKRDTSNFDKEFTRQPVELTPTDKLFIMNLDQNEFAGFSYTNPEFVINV", "test": "Activity at human PKCbeta1 at 10 uM"}, "[39]": {"target": "Protein kinase C beta type (Homo sapiens) (UniProt P05771)", "test": "Activity at human PKCbeta2 at 10 uM"}, "[40]": {"target": "Protein kinase C gamma type (Homo sapiens) (UniProt P05129)", "test": "Activity at human PKCgamma at 10 uM"}, "[41]": {"target": "Protein kinase C delta type (Homo sapiens) (UniProt Q05655)", "test": "Activity at human PKCdelta at 10 uM"}, "[42]": {"target": "Protein kinase C theta type (Homo sapiens) (UniProt Q04759)", "test": "Activity at human PKCtheta at 10 uM"}, "[43]": {"target": "cGMP-dependent protein kinase 1 (Homo sapiens) (UniProt Q13976)", "test": "Activity at human PKG1beta at 10 uM"}, "[44]": {"target": "Calcitonin gene-related peptide type 1 receptor (Homo sapiens) (UniProt Q16602)", "test": "Activity at human CGRP1 at 10 uM"}, "[45]": {"target": "Beta-2 adrenergic receptor (Homo sapiens) (UniProt P07550)", "test": "Activity at human beta2 receptor at 10 uM"}},
  "note": "Calls of active or inactive are those of the source. The rule behind the calls is not given here.",
  "data": [
    {"smiles": "CS(=O)(=O)c1ccc(Oc2cc(F)cc(C#N)c2)c2c1[C@H](O)[C@H](F)[C@@H]2F", "note": "[BELZUTIFAN]", "values": [
      {"measurement": "Activity", "setting": "[1]", "result": "inactive"},
      {"measurement": "Activity", "setting": "[2]", "result": "inactive"},
      {"measurement": "Activity", "setting": "[3]", "result": "Non-Toxic"},
      {"measurement": "concentration at 24 h", "setting": "[4]", "result": 500, "unit": "ng/mL"},
      {"measurement": "inhibition (INH)", "setting": "[5]", "result": "Not Active"},
      {"measurement": "half-life", "setting": "[6]", "result": 9.2, "unit": "h"},
      {"measurement": "AUClast/dose", "setting": "[7]", "result": 13, "unit": "µM·h"},
      {"measurement": "concentration at 12 h", "setting": "[8]", "result": "< 19", "unit": "ng/mL"},
      {"measurement": "concentration at 12 h", "setting": "[9]", "result": 27, "unit": "ng/mL"},
      {"measurement": "Activity", "setting": "[10]", "result": "Active"},
      {"measurement": "Cmax", "setting": "[11]", "result": 1400, "unit": "ng/mL"},
      {"measurement": "AUC(0-t)", "setting": "[12]", "result": 21000, "unit": "ng·h/mL"},
      {"measurement": "concentration at 24 h", "setting": "[13]", "result": 490, "unit": "ng/mL"},
      {"measurement": "concentration at 24 h", "setting": "[14]", "result": 570, "unit": "ng/mL"},
      {"measurement": "Activity", "setting": "[15]", "result": "inactive"},
      {"measurement": "Activity", "setting": "[16]", "result": "inactive"},
      {"measurement": "Activity", "setting": "[17]", "result": "inactive"},
      {"measurement": "Activity", "setting": "[18]", "result": "inactive"},
      {"measurement": "Activity", "setting": "[19]", "result": "inactive"},
      {"measurement": "Activity", "setting": "[20]", "result": "inactive"},
      {"measurement": "Activity", "setting": "[21]", "result": "inactive"},
      {"measurement": "Activity", "setting": "[22]", "result": "inactive"},
      {"measurement": "Activity", "setting": "[23]", "result": "inactive"},
      {"measurement": "Activity", "setting": "[24]", "result": "inactive"},
      {"measurement": "Activity", "setting": "[25]", "result": "inactive"},
      {"measurement": "Activity", "setting": "[26]", "result": "inactive"},
      {"measurement": "Activity", "setting": "[27]", "result": "inactive"},
      {"measurement": "Activity", "setting": "[28]", "result": "inactive"},
      {"measurement": "Activity", "setting": "[29]", "result": "inactive"},
      {"measurement": "Activity", "setting": "[30]", "result": "inactive"},
      {"measurement": "Activity", "setting": "[31]", "result": "inactive"},
      {"measurement": "Activity", "setting": "[32]", "result": "inactive"},
      {"measurement": "Activity", "setting": "[33]", "result": "inactive"},
      {"measurement": "Activity", "setting": "[34]", "result": "inactive"},
      {"measurement": "Activity", "setting": "[35]", "result": "inactive"},
      {"measurement": "Activity", "setting": "[36]", "result": "inactive"},
      {"measurement": "Activity", "setting": "[37]", "result": "inactive"},
      {"measurement": "Activity", "setting": "[38]", "result": "inactive"},
      {"measurement": "Activity", "setting": "[39]", "result": "inactive"},
      {"measurement": "Activity", "setting": "[40]", "result": "inactive"},
      {"measurement": "Activity", "setting": "[41]", "result": "inactive"},
      {"measurement": "Activity", "setting": "[42]", "result": "inactive"},
      {"measurement": "Activity", "setting": "[43]", "result": "inactive"},
      {"measurement": "Activity", "setting": "[44]", "result": "inactive"},
      {"measurement": "Activity", "setting": "[45]", "result": "inactive"}
    ]}
  ]
}
